In PMC3959744 (Journal of medicinal chemistry, 2013):
Positions count from the first letter of the chain named. Several values for one entry are separate records, joined by “and”; a condition that tells them apart may be missing. Equal entries are not always repeated. Entries after “also recorded” stand apart in the source; their conditions may differ.

Key:
LNCaP cells = assay: Cell growth inhibition; assay type: cell-based, human
[1] = tested on: DHT mediated AR transcription in LNCaP cells; assay: Transcriptional activation luciferase assay; assay type: cell-based, human; conditions: 10 μM compound, 10 nM DHT, 24 h
AR [2] = target: T1, AR (Homo sapiens, UniProt P10275, T878A); assay type: cell-based; conditions: LNCaP cells, 15 μM, 24 h, Western blot
T1 sequence (P10275 1-920 T878A): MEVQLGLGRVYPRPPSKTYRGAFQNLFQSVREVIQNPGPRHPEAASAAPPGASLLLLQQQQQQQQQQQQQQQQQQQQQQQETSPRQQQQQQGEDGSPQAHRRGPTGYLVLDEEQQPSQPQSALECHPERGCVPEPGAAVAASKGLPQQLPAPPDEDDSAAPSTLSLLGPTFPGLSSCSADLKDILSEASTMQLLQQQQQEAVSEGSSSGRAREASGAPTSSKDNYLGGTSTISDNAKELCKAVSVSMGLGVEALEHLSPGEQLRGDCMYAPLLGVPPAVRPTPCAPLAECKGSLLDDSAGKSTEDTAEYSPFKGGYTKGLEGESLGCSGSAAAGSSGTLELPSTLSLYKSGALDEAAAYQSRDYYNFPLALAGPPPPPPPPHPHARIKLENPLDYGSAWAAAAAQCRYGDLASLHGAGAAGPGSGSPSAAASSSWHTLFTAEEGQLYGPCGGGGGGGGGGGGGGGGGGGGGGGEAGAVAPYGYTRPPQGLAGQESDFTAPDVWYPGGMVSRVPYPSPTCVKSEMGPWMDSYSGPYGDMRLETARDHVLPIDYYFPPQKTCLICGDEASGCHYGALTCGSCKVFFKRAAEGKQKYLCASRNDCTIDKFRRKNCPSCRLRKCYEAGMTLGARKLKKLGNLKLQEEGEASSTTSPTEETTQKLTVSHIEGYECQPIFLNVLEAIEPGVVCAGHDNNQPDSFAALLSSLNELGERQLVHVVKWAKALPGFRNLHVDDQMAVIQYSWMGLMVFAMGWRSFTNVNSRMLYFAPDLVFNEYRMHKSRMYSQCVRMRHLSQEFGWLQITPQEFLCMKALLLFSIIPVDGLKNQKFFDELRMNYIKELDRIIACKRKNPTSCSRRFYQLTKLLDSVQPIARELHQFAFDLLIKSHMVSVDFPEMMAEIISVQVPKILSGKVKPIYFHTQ

AR [3] = target: T1, AR; assay: Immunocytochemical analysis of AR expression in LNCaP cells; conditions: 5 μM, 48 h
[4] = target: T2, full-length and truncated AR (AR-3) (Homo sapiens, UniProt P10275); assay: Western blot analysis of fAR and tAR-3 expression in CWR22Rv1 cells; conditions: 15 μM, 24 h
T2 sequence (P10275 1-920): T1 sequence (P10275 1-920 T878A) with A878T

[5] = Solubility in ethanol or DMSO; assay type: physicochemical; conditions: prevented biological testing

Structure (SMILES) | inhibition of DHT mediated transcription [1] | effect on AR protein expression (AR degradation / ARD activity) (AR [2]) | further results
C[C@]12CC[C@H](OC(=O)n3ccnc3)CC1=CC[C@@H]1[C@@H]2CC[C@]2(C)C(n3cnc4ccccc43)=CC[C@@H]12 [Compound 47, 3β-(1H-Imidazole-1-carboxylate)-17-(1H-benzimidazol-1-yl)-androsta-5,16-diene] | 65–100% | most potent | fold more potent than compound 5, anti-proliferative activity (LNCaP cells; from GI50): 4 fold and ~ 4 fold; AR levels in the nucleus (AR [3]): significant decrease in AR levels in the nucleus; effect on full-length and truncated AR (AR-3) expression [4]: could degrade both full-length and truncated AR; also recorded: significant down-regulation of both full-length and truncated AR
C[C@]12CCC(=NO)C=C1CC[C@@H]1[C@@H]2CC[C@]2(C)C(n3cnc4ccccc43)=CC[C@@H]12 (mixture of isomers) [Compound 36, 3-((EZ)-Hydroximino)-17-(1H-Benzimidazol-1-yl)-androsta-4,16-diene] | 65–100% | – | effect on full-length and truncated AR (AR-3) expression [4]: could degrade both full-length and truncated AR; also recorded: significant down-regulation of both full-length and truncated AR
C[C@]12CC[C@H](OC(=O)c3ccccn3)CC1=CC[C@@H]1[C@@H]2CC[C@]2(C)C(n3cnc4ccccc43)=CC[C@@H]12 [Compound 41, 3β-(Pyridine-2-carboxylate)-17-(1H-benzimidazol-1-yl)-androsta-5,16-diene] | – | – | solubility in ethanol or DMSO [5]: limited solubilities in ethanol or DMSO
C[C@]12CC[C@H](OC(=O)c3cccnc3)CC1=CC[C@@H]1[C@@H]2CC[C@]2(C)C(n3cnc4ccccc43)=CC[C@@H]12 [Compound 42, 3β-(Pyridine-3-carboxylate)-17-(1H-benzimidazol-1-yl)-androsta-5,16-diene] | – | – | solubility in ethanol or DMSO [5]: limited solubilities in ethanol or DMSO
CC(C)CCNCC1=C(n2cnc3ccccc32)[C@@]2(C)CC[C@H]3[C@@H](CC=C4C[C@@H](O)CC[C@@]43C)[C@@H]2C1 [Compound 25, 3β-Hydoxy-17-(1H-benzimidazol-1-yl)-16-((isopentylamino)methyl)-androsta-5,16-diene] | 65–100% | significant loss of ARD | –
C[C@]12CC[C@H](O)CC1=CC[C@@H]1[C@@H]2CC[C@]2(C)C(n3cnc4ccccc43)=C(CNc3ccccc3)C[C@@H]12 [Compound 28, 3β-Hydoxy-17-(1H-benzimidazol-1-yl)-16-((phenylamino)methyl)-androsta-5,16-diene] | 65–100% | significant loss of ARD | –
C[C@]12CC[C@H](OC(=O)n3cncn3)CC1=CC[C@@H]1[C@@H]2CC[C@]2(C)C(n3cnc4ccccc43)=CC[C@@H]12 [Compound 49, 3β-(1H-1,2,4-Triazole-1-carboxylate)-17-(1H-benzimidazol-1-yl)-androsta-5,16-diene] | – | significant up-regulation of AR | –
C[C@]12CC/C(=N\Oc3ccccc3)C=C1CC[C@@H]1[C@@H]2CC[C@]2(C)C(n3cnc4ccccc43)=CC[C@@H]12 (mixture of isomers) [Compound 37, 3-((EZ)-O-Phenyloxime)-17-(1H-Benzimidazol-1-yl)-androsta-4,16-diene] | – | – | solubility in ethanol or DMSO [5]: limited solubility in ethanol or DMSO
C[C@]12CC[C@H](OS(C)(=O)=O)CC1=CC[C@@H]1[C@@H]2CC[C@]2(C)C(n3cnc4ccccc43)=CC[C@@H]12 [Compound 34, 3β-Mesyloxy-17-(1H-benzimidazol-1-yl)-androsta-5,16-dien] | 65–100% | – | –
C[C@]12CC[C@H](O)CC1=CC[C@@H]1[C@@H]2CC[C@]2(C)C(n3cnc4cc(C#N)ccc43)=CC[C@@H]12 [Compound 18, 3β-Hydroxy-17-(5(6)-nitrile-1H-benzimidazol-1-yl)-androsta-5,16-diene] | – | diminished AR down-regulation (ARD) activity | GI50 (LNCaP cells; read-out: GI50, C-17 modified compounds, MTT, 7 days, at least three independent experiments, SEM < 10%): 2810 nM
CO/N=C1/C=C2CC[C@@H]3[C@H](CC[C@]4(C)C(n5cnc6ccccc65)=CC[C@@H]34)[C@@]2(C)CC1 (mixture of isomers) [Compound 38, 3-((EZ)-O-Methyloxime)-17-(1H-Benzimidazol-1-yl)-androsta-4,16-diene] | 65–100% | – | –
COc1ccc2ncn(C3=CC[C@H]4[C@@H]5CC=C6C[C@@H](O)CC[C@]6(C)[C@H]5CC[C@]34C)c2c1 [Compound 19, 3β-Hydroxy-17-(6-methoxy-1H-benzimidazol-1-yl)-androsta-5,16-diene] | – | no modulation of ARDA | –
Cc1nccn1C(=O)O[C@H]1CC[C@@]2(C)C(=CC[C@@H]3[C@@H]2CC[C@]2(C)C(n4cnc5ccccc54)=CC[C@@H]32)C1 [Compound 48, 3β-(2-Methyl-1H-imidazole-1-carboxylate)-17-(1H-benzimidazol-1-yl)-androsta-5,16-diene] | – | – | fold decrease in anti-proliferative activity relative to 47 (LNCaP cells; from GI50): 6 fold
C[C@]12CC[C@H](OC(=O)c3ccncc3)CC1=CC[C@@H]1[C@@H]2CC[C@]2(C)C(n3cnc4ccccc43)=CC[C@@H]12 [Compound 43, 3β-(Pyridine-4-carboxylate)-17-(1H-benzimidazol-1-yl)-androsta-5,16-diene] | – | – | effect on full-length and truncated AR (AR-3) expression [4]: could degrade both full-length and truncated AR
COc1ccc(NCC2=C(n3cnc4ccccc43)[C@@]3(C)CC[C@H]4[C@@H](CC=C5C[C@@H](O)CC[C@@]54C)[C@@H]3C2)cc1OC [Compound 31, 3β-Hydoxy-17-(1H-benzimidazol-1-yl)-16-(((3,4-dimethoxyphenyl)amino)methyl)-androsta-5,16-diene] | – | significant loss of ARD | effect on full-length and truncated AR (AR-3) expression [4]: significant down-regulation of both full-length and truncated AR
C[C@]12CC/C(=N\OCc3ccccc3)C=C1CC[C@@H]1[C@@H]2CC[C@]2(C)C(n3cnc4ccccc43)=CC[C@@H]12 (mixture of isomers) [Compound 39, 3-((EZ)-(O-Phenylmethyl)oxime)-17-(1H-Benzimidazol-1-yl)-androsta-4,16-diene] | 65–100% | – | –
